Data set [1] concerns bilirubin-conjugating activity. The following applies: indinavir treatment; cited from earlier work.
Data set [2] can be described thus: Ethinylestradiol pharmacokinetics alone and with ritonavir in healthy female volunteers. It is filed as in vivo, human. How it is done: This was an open-label, single-center study in healthy female volunteers who had not received an oral contraceptive for a minimum of six months prior to study start. Subjects received the first dose of oral contraceptive containing 50 μg of ethinyl estradiol on Day 1. […] On Day 15, 300 mg q12h was administered, 400 mg q12h was given on Day 16, and 500 mg q12h was administered thereafter. […] Blood samples for ethinylestradiol concentrations were collected for 48 h after each of the oral contraceptive doses.
Twenty-seven subjects were enrolled in the study. […] Data from these four subjects were therefore excluded from summary statistics. The mean ±SD age of the 23 subjects who completed the study was 34±10 yrs (range 19 to 45 yrs), the mean ±SD weight was 67.3±10.9 kg (range 50.8 to 90.3 kg), and the mean ±SD height was 167±7 cm (range 155 to 180 cm).
Ethinylestradiol was supplied as Demulen@ 1/50-21 tablets (G.D. Searle & Co.) containing 50 μg of ethinylestradiol and 1 mg of ethynodiol diacetate and was administered at 8:00 a.m. on Day 1 and Day 29 with approximately 240 mL of water and within 15 minutes of a meal or snack.
Subjects were confined for 64 hours from Day-1 (day prior to the initial dose) through the first 48 hour blood collection (morning of Day 3) and for 64 hours from Day 28 through the second 48 hour blood collection (morning of Day 31). In addition, subjects came to the clinical testing unit as outpatients for meals, dosing and other study activities twice daily for a total of 14 consecutive days, starting on Day 15. Strenuous activity during confinement was not permitted. During confinement, subjects abstained from all food and beverages except for the scheduled meals and snacks provided in the study. Water was available ad libitum. All meals were standardized with regard to content during confinement. Breakfast, lunch, and dinner were served at approximately 7:30 a.m., 1:00 p.m. and 7:30 p.m. and snacks were provided at approximately 10:00 p.m., except on Days-1 and 28 when the snack was served at 9:45 p.m. An 8 hour fast was required prior to all blood collections for clinical laboratory analyses. The sequence of starting breakfast and dinner on each dosing day during confinement was maintained to the minute such that the time intervals relative to dosing were the same among all subjects.
Blood samples (7 mL) were collected for serum ethinyl estradiol concentrations at the following times relative to the dose on Day 1 and Day 29: prior to (0 h) and at 0.5, 1, 2, 3, 4, 6, 8, 10, 12, 18, 24, 30, 36, and 48 h post-dose. […] All plasma and serum samples were packed with dry ice and shipped to the analytical sites.
Serum samples were analyzed for ethinylestradiol concentrations at Pharmaco LSR, Richmond, Va.
Analysis of serum samples for determination of ethinyl estradiol was performed at Pharmaco LSR, Richmond, Va. Ethinylestradiol serum concentrations were determined using a gas chromatography/mass spectrometry (GC/MS) method. 17α-ethinylestradiol and its corresponding isotopically labeled internal standard were isolated from human serum by buffering the serum to pH 8.6 and then extracting with an ethyl ether/methylene chloride mixture. The organic layer was exchanged into aqueous base, washed with hexane and then acidified and extracted with methylene chloride. […] This method has been validated over 17α-ethinylestradiol concentrations ranging from 2.00 to 256 pg/mL for a 1.0 mL serum volume, with a minimum quantitation limit of 2.00 pg/mL. […]

Data set [3] concerns UDP-glucuronosyltransferase 1A (UGT 1A). In words: Affymetrix Rat U34 microarray of liver RNA after oral ritonavir. It is filed as in vivo, Sprague-Dawley rats.
Data set [4] concerns UGT1A1. Put plainly: Hepatic 17α-ethinylestradiol glucuronidation activity in liver microsomes of treated rats. The following applies: both male and female rats.
For data set [5], the system named is bilirubin conjugation in human microsomes. The following applies: in vitro system of human microsomes; cited from earlier work.
Data set [6] has as its target T1, UGT1A1 isoform (Homo sapiens, UniProt P22309).
T1 sequence (P22309 26-533): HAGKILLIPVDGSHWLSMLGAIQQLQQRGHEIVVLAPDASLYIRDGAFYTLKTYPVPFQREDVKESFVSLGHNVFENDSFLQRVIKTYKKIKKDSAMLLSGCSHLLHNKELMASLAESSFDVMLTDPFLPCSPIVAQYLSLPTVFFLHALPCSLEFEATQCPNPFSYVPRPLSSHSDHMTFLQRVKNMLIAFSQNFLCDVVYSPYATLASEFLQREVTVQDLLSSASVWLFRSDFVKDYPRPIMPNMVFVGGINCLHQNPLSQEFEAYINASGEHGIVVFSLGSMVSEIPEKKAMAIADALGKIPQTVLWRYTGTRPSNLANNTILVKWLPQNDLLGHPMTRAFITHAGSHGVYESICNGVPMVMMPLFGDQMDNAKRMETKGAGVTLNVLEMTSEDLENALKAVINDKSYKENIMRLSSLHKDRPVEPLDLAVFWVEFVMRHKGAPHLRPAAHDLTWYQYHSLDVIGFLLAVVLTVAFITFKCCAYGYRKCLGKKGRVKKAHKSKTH
The conditions noted are these: human cells transfected with the UGT1A1 isoform; cited from earlier work.

For data set [7] the following is noted: one study, subjects taking atazanavir; cited from earlier work.
Where [8] appears, read: Mean ± SD, n = 23, single 50 μg ethinylestradiol dose, alone (Day 1) or on Day 29 during ritonavir 500 mg q12h, serum.
The mark [9] stands for this setting: 1-Day Studies, 20 mg/kg oral, liver RNA, 20 mg/kg.
Where [10] appears, read: 1-Day Studies, 50 mg/kg oral, liver RNA, 50 mg/kg.
The mark [11] stands for this setting: 3-Day Studies, 50 mg/kg oral daily, liver RNA, 50 mg/kg.

Several values for one entry are separate records, joined by “and”; a condition that tells them apart may be missing. Equal entries are not always repeated.

For `CC(C)(C)NC(=O)[C@@H]1CN(Cc2cccnc2)CCN1C[C@@H](O)C[C@@H](Cc1ccccc1)C(=O)N[C@H]1c2ccccc2C[C@H]1O` [Indinavir], the “cause of elevations in serum-unconjugated bilirubin (result in words)” value in data set [1] is recorded as “direct inhibition of bilirubin-conjugating activity”.
As for `C#C[C@]1(O)CC[C@H]2[C@@H]3CCc4cc(O)ccc4[C@H]3CC[C@@]21C` [Ethinylestradiol, 17α-ethinylestradiol], in data set [2] (setting [8]), the “Ethinylestradiol AUC∞” value turned out to be 1.67 ± 0.377 ng·h/mL, the “Ethinylestradiol Cmax” value worked out at 0.104 ± 0.024 ng/mL, the “Ethinylestradiol Tmax” value came to 4.0 ± 1.7 h and the “Ethinylestradiol β (terminal elimination rate constant)” value came to 0.0407 ± 0.0082 h⁻¹. In addition, the “time at which serum ethinylestradiol concentrations peaked post-dose” value in data set [2] (single dose of oral contraceptive alone) was “approximately 4 h”.
Regarding `CC(C)c1nc(CN(C)C(=O)N[C@H](C(=O)N[C@@H](Cc2ccccc2)C[C@H](O)[C@H](Cc2ccccc2)NC(=O)OCc2cncs2)C(C)C)cs1` [ritonavir, Ritonavir], the “Fold change, UDP-glucuronosyltransferase 1 family, member 1 (1st probe sequence)” value in data set [3] (1-Day Studies, 20 mg/kg oral, liver RNA) worked out at 1.63. Moreover, in data set [3] (setting [9]), the “Fold change, 3-methylcholanthrene-inducible UDP-glucuronosyltransferase” value was 1.83 and 1.54; the “Fold change, UDP-glucuronosyltransferase 1 family, member 1 (2nd probe sequence)” value was 1.68 and 1.51; the “Fold change, UDP-glucuronosyltransferase 1 family, member 1 (3rd probe sequence)” value (shortened to “Fold change … (3rd probe sequence)”) is 1.8 and 1.52. Also, in data set [3] (1-Day Studies, 50 mg/kg oral, liver RNA), the “Fold change, UDP glucuronosyltransferase, exon 1.” value came out at 2.43. Moreover, in data set [3] (setting [10]), the “Fold change, 3-methylcholanthrene-inducible UDP-glucuronosyltransferase” value is 1.63 and 2.1; the “Fold change, UDP-glucuronosyltransferase 1 family, member 1 (1st probe sequence)” value was 1.68 and 1.63; the “Fold change, UDP-glucuronosyltransferase 1 family, member 1 (2nd probe sequence)” value is 2.12 and 2.05; the “Fold change … (3rd probe sequence)” value was 1.75 and 2.12. Moreover, in data set [3] (setting [11]), the “Fold change, 3-methylcholanthrene-inducible UDP-glucuronosyltransferase” value was 1.54 and 1.85; the “Fold change … (3rd probe sequence)” value is 1.31 and 1.33. Further, the “UGT1A levels for all probe sets” value in data set [3] (dose levels of 100 mg/kg and higher, after 1 and 3 days of treatment) is on record as “consistent increase”. Moreover, in data set [4], the “glucuronidation of 17α-ethinylestradiol, a UGT1A1 substrate (result in words)” value is given as “significantly increase”.
Turning to `COC(=O)N[C@H](C(=O)N[C@@H](Cc1ccccc1)[C@@H](O)CN(Cc1ccc(-c2ccccn2)cc1)NC(=O)[C@@H](NC(=O)OC)C(C)(C)C)C(C)(C)C` [Atazanavir], the “inhibition of bilirubin conjugation (result in words)” value in data set [5] and in data set [6] was “inhibits bilirubin conjugation in the micromolar range” each time. In data set [7], the “subjects exhibiting unconjugated hyperbilirubinemia” value is 57%.
